The results in this text go back to patent US7109193B2, “Tricyclic diazepines tocolytic oxytocin receptor antagonists” (Wyeth, priority 2001, dated 2006).

A word on the melting point: it is the temperature of the solid-liquid transition. For orientation: inhibition means the relative decrease from the control value, in per cent.

For one data set, the target named is T1, human oxytocin receptor (Homo sapiens, UniProt P30559).
T1 construct: host or cells: CHO cells (pcDNA3.1 vector)
T1 sequence (P30559 1-389): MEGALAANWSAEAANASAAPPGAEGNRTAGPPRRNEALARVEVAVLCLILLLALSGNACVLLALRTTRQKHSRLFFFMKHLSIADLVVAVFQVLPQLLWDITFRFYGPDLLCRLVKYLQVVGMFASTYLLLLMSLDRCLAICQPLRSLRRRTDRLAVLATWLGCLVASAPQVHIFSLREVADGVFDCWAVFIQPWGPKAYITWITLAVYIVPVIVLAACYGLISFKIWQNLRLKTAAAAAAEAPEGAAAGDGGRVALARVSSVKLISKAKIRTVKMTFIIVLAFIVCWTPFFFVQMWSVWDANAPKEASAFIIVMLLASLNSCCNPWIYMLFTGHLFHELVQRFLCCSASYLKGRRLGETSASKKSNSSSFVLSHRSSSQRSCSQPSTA
The data set is described as follows: Oxytocin binding in Chinese Hamster Ovary cell membranes expressing human oxytocin receptors. The settings on record: 100 nM, CHO cell membranes, [3H]oxytocin, values without parentheses, read-out: OT % inhibition @ 100% nM.

On to `COc1cc2c(cc1OC)N(C(=O)c1ccc(-c3ccccc3C(F)(F)F)c(C)c1)Cc1cccn1C2` [Example 12, 7,8-Dimethoxy-[10,11-dihydro-5H-pyrrolo[2,1-c][1,4]benzodiazepin-10-yl][2-methyl-2′-(trifluoromethyl)[1,1′-biphenyl]-4-yl]methanone], for which the melting point was 187 to 188 °C. Also, the inhibition at 0.1 µM at human oxytocin receptor came to 21%.
The like results for `COc1cc(-c2ccccc2C(F)(F)F)c(Cl)cc1C(=O)N1Cc2ccc(C(=O)O)n2Cc2ccccc21` [Example 15, 10-{[6-Chloro-3-methoxy-2′-trifluoromethyl-[1,1′-biphenyl]-4-yl]carbonyl}-10,11-dihydro-5H-pyrrolo[2,1-c][1,4]benzodiazepine-3-carboxylic acid] were, in that order, 220 to 222 °C (dec.) and -4%.
For `COc1cc(-c2ccccc2C)c(Cl)cc1C(=O)N1Cc2ccc(C(=O)N3CCN(CCN4CCOCC4)CC3)n2Cc2ccccc21` [Example 217, {10-[(6-Chloro-3-methoxy-2′-methyl[1,1′-biphenyl]-4-yl)carbonyl]-10,11-dihydro-5H -pyrrolo[2,1-c][1,4]benzodiazepin-3-yl}{4-[2-(4-morpholinyl)ethyl]-1-piperazinyl}methanone], the inhibition at 0.1 µM on human oxytocin receptor stood at 98%.
On the same count and under the same terms, under `Cc1cc(C(=O)N2Cc3ccc(C(=O)N4CCN(C(C)C)CC4)n3Cc3ccccc32)ccc1-c1ccccc1C(F)(F)F` [Example 240, (4-Isopropyl-1-piperazinyl)(10-{[2-methyl-2′-(trifluoromethyl)[1,1′-biphenyl]-4-yl]carbonyl}-10,11-dihydro-5H-pyrrolo[2,1-c][1,4]benzodiazepin-3-yl)methanone] stands 62%; under `COc1cccc(-c2ccc(C(=O)N3Cc4ccc(C(=O)N5CCN(C(C)C)CC5)n4Cc4ccccc43)cc2C)c1` [Example 235, (4-Isopropyl-1-piperazinyl){10-[(3′-methoxy-2-methyl[1,1′-biphenyl]-4-yl)carbonyl]-10,11-dihydro-5H-pyrrolo[2,1-c][1,4]benzodiazepin-3-yl}methanone], 64%.
`COc1ccccc1-c1ccc(C(=O)N2Cc3ccc(C(=O)O)n3Cc3ccccc32)cc1C` [Example 9, 10-[(2′-Methoxy-2-methyl-[1,1′-biphenyl]-4-yl)carbonyl]-10,11-dihydro-5H-pyrrolo[2,1-c][1,4]benzodiazepine-3-carboxylic acid] yielded a melting point of 174 to 184 °C. For the same molecule, on human oxytocin receptor, the inhibition at 0.1 µM is 32%.
As for `Cc1ccccc1-c1ccc(C(=O)N2Cc3ccc(C(=O)N4CCN(CCN5CCOCC5)CC4)n3Cc3ccccc32)cc1C` [Example 218, {10-[(2,2′-Dimethyl[1,1′-biphenyl]-4-yl)carbonyl]-10,11-dihydro-5H-pyrrolo[2,1-c][1,4]benzodiazepin-3-yl}{4-[2-(4-morpholinyl)ethyl]-1-piperazinyl}methanone], the inhibition at 0.1 µM on human oxytocin receptor turned out to be 98%.
Take `COc1ccccc1-c1ccc(C(=O)N2Cc3ccc(C(=O)N(C)C4CCN(C)C4)n3Cc3ccccc32)cc1OC` (stereo not drawn) [Example 193, 10-[(2,2′-Dimethoxy[1,1′-biphenyl]-4-yl)carbonyl]-N-methyl-N-(1-methyl-3-pyrrolidinyl)-10,11-dihydro-5H-pyrrolo[2,1-c][1,4]benzodiazepine-3-carboxamide]: the inhibition at 0.1 µM at human oxytocin receptor came to 96%.
With `C=CCN1CCN(C(=O)c2ccc3n2Cc2ccccc2N(C(=O)c2ccc(-c4cccc(OC)c4)c(OC)c2)C3)CC1` [Example 228, (4-Allyl-1-piperazinyl){10-[(2,3′-dimethoxy[1,1′-biphenyl]-4-yl)carbonyl]-10,11-dihydro-5H -pyrrolo[2,1-c][1,4]benzodiazepin-3-yl}methanone], at human oxytocin receptor, the inhibition at 0.1 µM is 77%.
Regarding `C=CCN1CCN(C(=O)c2ccc3n2Cc2ccccc2N(C(=O)c2ccc(-c4cccc(OC)c4)c(C)c2)C3)CC1` [Example 223, (4-Allyl-1-piperazinyl){10-[(3′-methoxy-2-methyl[1,1′-biphenyl]-4-yl)carbonyl]-10,11-dihydro-5H-pyrrolo[2,1-c][1,4]benzodiazepin-3-yl}methanone], the inhibition at 0.1 µM on human oxytocin receptor came to 71%.
Still for that read-out and setting: under `Cc1cc(C(=O)N2Cc3ccc(C(=O)NCCC4CCCN4C)n3Cc3ccccc32)ccc1-c1ccccc1C(F)(F)F` (stereo not drawn) [Example 174, N-[2-(1-Methyl-2-pyrrolidinyl)ethyl]-10-{[2-methyl-2′-(trifluoromethyl)[1,1′-biphenyl]-4-yl]carbonyl}-10,11-dihydro-5H-pyrrolo[2,1-c][1,4]benzodiazepine-3-carboxamide] stands 59%; under `Cc1cc(C(=O)N2Cc3ccc(C(=O)N(C)C4CCN(C)C4)n3Cc3ccccc32)ccc1-c1ccccc1C(F)(F)F` (stereo not drawn) [Example 194, N-Methyl-N-(1-methyl-3-pyrrolidinyl)-10-{[2-methyl-2′-(trifluoromethyl)[1,1′-biphenyl]-4-yl]carbonyl}-10,11-dihydro-5H-pyrrolo[2,1-c][1,4]benzodiazepine-3-carboxamide], 96%; under `COc1cccc(-c2ccc(C(=O)N3Cc4ccc(C(=O)NCCN5CCCCC5)n4Cc4ccccc43)cc2OC)c1` [Example 159, 10-[(2,3′-Dimethoxy[1,1′-biphenyl]-4-yl)carbonyl]-N-[2-(1-piperidinyl)ethyl]-10,11-dihydro-5H-pyrrolo[2,1-c][1,4]benzodiazepine-3-carboxamide], 50%.
Turning to `C=CCN1CCN(C(=O)c2ccc3n2Cc2ccccc2N(C(=O)c2ccc(-c4ccccc4OC)c(C)c2)C3)CC1` [Example 222, (4-Allyl-1-piperazinyl){10-[(2′-methoxy-2-methyl[1,1′-biphenyl]-4-yl)carbonyl]-10,11-dihydro-5H-pyrrolo[2,1-c][1,4]benzodiazepin-3-yl}methanone], the inhibition at 0.1 µM at human oxytocin receptor was 84%.
The same measure, in the same setting: under `COc1cc(C(=O)N2Cc3ccc(C(=O)N4CCN(C(C)C)CC4)n3Cc3ccccc32)ccc1-c1cccc2ccccc12` [Example 236, (4-Isopropyl-1-piperazinyl){10-[3-methoxy-4-(1-naphthyl)benzoyl]-10,11-dihydro-5H -pyrrolo[2,1-c][1,4]benzodiazepin-3-yl}methanone] stands 46%.
